Some test systems named below: RXF 393; HOP-92; SR; SF-268; A498; ACHN; SK-MEL-5; KM12; NCI-H226; NCI-H23; SW-620; BT-549; CCRF-CEM; SK-OV-3; DU-145; CAKI-1; U-251; OVCAR-8; MDA-MB-435; DMS-273.
Test in all cases: NCI anticancer screen, dose series, 48 h

Here are results for eleven molecules from ChEMBL document CHEMBL1201862, “PubChem BioAssay data set” (2004).

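Values below derive from 48-hour exposures of cells grown in 96-well plates, with endpoints linearly interpolated between the two concentrations bracketing the appropriate inhibition level. The concentration for 50% growth inhibition is given as GI50.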 The source made the active and inactive calls. Cut-off read from the data, not from the text of the source: active = GI50 up to about 1.1 µM and inactive = higher. Where only a bound is given, the exact number is not on record here.

For `O=C(SCc1cccc2ccccc12)c1ccc(Cl)cc1`, the GI50 with RXF 393 is > 100 µM (inactive); in the test on HOP-92 it was 18.8 µM (inactive); with SR, 39.3 µM (inactive); in the test on SF-268 it was 80.4 µM (inactive); in the test with A498, > 100 µM (inactive); in the test with ACHN, > 100 µM (inactive). The GI50 in the test with SK-MEL-5 is 45.2 µM (inactive); in the test on KM12 it was > 100 µM (inactive); in the test with NCI-H226, > 100 µM (inactive); in the test on NCI-H23 it was 95.3 µM (inactive); in the test with SW-620 it was > 100 µM (inactive); with BT-549, > 100 µM (inactive). Moreover, the GI50 in the test on CCRF-CEM, with SK-OV-3, in the test with DU-145, with CAKI-1, in the test with U-251 and with OVCAR-8 was > 100 µM (inactive) in each case. Further, the GI50 with MDA-MB-435 was 97.1 µM (inactive).

As to `O=C(OCc1ccccc1)c1ccc(NCc2cc(O)ccc2O)cc1`, the GI50 was 1.07 µM (active) with RXF 393; 0.867 µM (active) in the test on HOP-92; 0.247 µM (active) with SR; 1.36 µM (inactive) in the test with SF-268; 1.09 µM (active) with A498; 1.43 µM (inactive) with ACHN. Further, the GI50 in the test with SK-MEL-5 is 1.52 µM (inactive); in the test on KM12, 1.52 µM (inactive); with NCI-H226 it was 2.42 µM (inactive); in the test with NCI-H23, 1.53 µM (inactive); with SW-620, 1.67 µM (inactive); in the test with BT-549, 0.713 µM (active). The GI50 in the test with CCRF-CEM was 0.308 µM (active); in the test with SK-OV-3, 2.7 µM (inactive); in the test on DU-145, 3.15 µM (inactive); in the test on CAKI-1, 0.575 µM (active); with U-251, 1.29 µM (inactive); in the test on OVCAR-8, 1.42 µM (inactive). In addition, the GI50 with MDA-MB-435 is 1.58 µM (inactive).

Consider `O=C(N/N=C/c1ccccc1)c1cccc2nc3ccccc3nc12`, for which the GI50 with RXF 393 was > 100 µM (inactive); in the test with HOP-92, > 69.2 µM (inactive); in the test with SR it was > 100 µM (inactive); with SF-268 it was > 80.2 µM (inactive); with A498, 77.4 µM (inactive); in the test on ACHN it was > 100 µM (inactive). Moreover, the GI50 was 3.19 µM (inactive) with SK-MEL-5; 54 µM (inactive) with KM12; 38.7 µM (inactive) in the test with NCI-H226; 6.07 µM (inactive) in the test with NCI-H23; > 100 µM (inactive) with SW-620; > 58.2 µM (inactive) with BT-549. Further, the GI50 in the test with CCRF-CEM is > 74.8 µM (inactive); in the test on SK-OV-3, > 88.3 µM (inactive); in the test with DU-145, 17.9 µM (inactive); with CAKI-1, > 100 µM (inactive); with U-251 it was > 100 µM (inactive); in the test on OVCAR-8, > 85.7 µM (inactive). Further, in the test on MDA-MB-435, the GI50 is 65 µM (inactive).

For `COC(OC)c1cccc2c1C(=O)CCC1(CC2)OCCCCO1`, the GI50 in the test on RXF 393, in the test on SF-268, in the test with DMS-273, in the test on A498, in the test with ACHN and in the test on SK-MEL-5 was > 100 µM (inactive) in each case. In addition, the GI50 in the test on KM12, in the test on NCI-H226, with NCI-H23, in the test with SW-620, in the test with CCRF-CEM and in the test on SK-OV-3 was > 100 µM (inactive) throughout. The GI50 in the test with CAKI-1, in the test on U-251 and in the test on OVCAR-8 was > 100 µM (inactive) each time.

Regarding `CC1(Br)Cc2ccccc2C1=O` (stereo not given), the GI50 in the test on RXF 393 is > 10 µM (inactive); in the test on HOP-92, 6.49 µM (inactive); in the test on SR it was 2.45 µM (inactive); with SF-268, 4.68 µM (inactive); with A498, 21.9 µM (inactive); in the test with ACHN, 4.17 µM (inactive). The GI50 with SK-MEL-5 is 5.71 µM (inactive); with KM12 it was 12.6 µM (inactive); with NCI-H226, 2.34 µM (inactive); in the test with NCI-H23, 5.41 µM (inactive); in the test with SW-620 it was 4.75 µM (inactive); in the test on BT-549, 1.7 µM (inactive). The GI50 in the test on CCRF-CEM is 1.75 µM (inactive); in the test with SK-OV-3 it was 9.06 µM (inactive); in the test with DU-145, 13.7 µM (inactive); in the test on CAKI-1 it was 8.71 µM (inactive); in the test on U-251, 4.59 µM (inactive); with OVCAR-8, 8.57 µM (inactive). Besides, the GI50 with MDA-MB-435 is 4.47 µM (inactive).

As to `COc1cc(Nc2nc3ccccc3nc2C(=O)O)cc(OC)c1OC`, the GI50 in the test with RXF 393 was > 100 µM (inactive); in the test on HOP-92, 25.9 µM (inactive); with SR, > 100 µM (inactive); with SF-268, 28.3 µM (inactive); in the test on A498, 35 µM (inactive); with ACHN it was > 100 µM (inactive). In addition, the GI50 in the test with SK-MEL-5 was 49.2 µM (inactive); with KM12 it was > 100 µM (inactive); with NCI-H226, > 100 µM (inactive); in the test on NCI-H23, 75.7 µM (inactive); in the test with SW-620, > 100 µM (inactive); with BT-549, 89.9 µM (inactive). Also, the GI50 was 83.2 µM (inactive) in the test on CCRF-CEM; 59.2 µM (inactive) in the test with SK-OV-3; > 100 µM (inactive) in the test with DU-145; 16.4 µM (inactive) in the test on CAKI-1; > 100 µM (inactive) with U-251; > 100 µM (inactive) in the test on OVCAR-8. Besides, the GI50 in the test with MDA-MB-435 is > 100 µM (inactive).

Turning to `C/C(=N/NC(=S)Nc1cccc(Cl)c1)c1ccccn1`, the GI50 in the test with RXF 393 is 1.52 µM (inactive); with HOP-92, 1.18 µM (inactive); with SR, < 0.0185 µM (active); in the test with SF-268, 0.142 µM (active); in the test on A498 it was 1.5 µM (inactive); in the test with ACHN, 0.194 µM (active). Further, the GI50 in the test with SK-MEL-5 is 0.37 µM (active); in the test with KM12, 0.413 µM (active); with NCI-H226 it was 0.213 µM (active); with NCI-H23, 0.463 µM (active); in the test on SW-620, 0.0324 µM (active); with BT-549, 1.82 µM (inactive). Also, the GI50 in the test on CCRF-CEM was < 0.0174 µM (active); in the test with SK-OV-3, 0.265 µM (active); in the test on DU-145 it was 0.532 µM (active); in the test with CAKI-1, 0.348 µM (active); with U-251, 0.0885 µM (active); in the test on OVCAR-8, 0.0834 µM (active). The GI50 in the test on MDA-MB-435 was 1.31 µM (inactive).

In the case of `CC(C)(Oc1ccc(Cl)cc1)C(=O)N(C(=O)N1CCC(c2ccccc2)CC1)c1ccccc1`, the GI50 in the test on RXF 393 is 13.6 µM (inactive); with HOP-92 it was > 100 µM (inactive); with SR, > 100 µM (inactive); with SF-268, > 100 µM (inactive); in the test on A498, > 82.8 µM (inactive); in the test with ACHN it was 40.6 µM (inactive). In addition, the GI50 with SK-MEL-5 is 4.94 µM (inactive); in the test on KM12, 15.5 µM (inactive); in the test on NCI-H226 it was > 61 µM (inactive); with NCI-H23, 8.79 µM (inactive); in the test with SW-620, 22.4 µM (inactive); in the test with BT-549, 23.4 µM (inactive). In addition, the GI50 was 3.03 µM (inactive) in the test with CCRF-CEM; 99.8 µM (inactive) with SK-OV-3; > 100 µM (inactive) in the test with DU-145; 46 µM (inactive) with CAKI-1; > 25.2 µM (inactive) in the test with U-251; 8.47 µM (inactive) in the test on OVCAR-8. Moreover, the GI50 in the test with MDA-MB-435 is > 100 µM (inactive).

As to `COc1ccc2[nH]c3c(c2c1)CC(=O)N1CCC[C@H](C1)CC31OCCCO1`, the GI50 in the test with RXF 393 was 44.5 µM (inactive); with HOP-92, 55 µM (inactive); in the test with SR it was > 100 µM (inactive); with SF-268, > 100 µM (inactive); with A498, > 100 µM (inactive); in the test with ACHN, > 100 µM (inactive). In addition, the GI50 in the test on SK-MEL-5, in the test on KM12, in the test on NCI-H226, in the test with NCI-H23, in the test with SW-620 and in the test on BT-549 was > 100 µM (inactive) each time. Moreover, the GI50 in the test with CCRF-CEM was 64.6 µM (inactive); with SK-OV-3, > 100 µM (inactive); in the test with DU-145 it was > 100 µM (inactive); in the test on CAKI-1, > 100 µM (inactive); in the test on U-251 it was > 100 µM (inactive); with OVCAR-8, > 100 µM (inactive). Further, the GI50 with MDA-MB-435 is > 100 µM (inactive).

`CCOC(=O)c1[nH]c(Br)c(-c2ccc(Br)cc2)c1Br`: the GI50 in the test with RXF 393 was 1.23 µM (inactive); in the test on HOP-92 it was 1.14 µM (inactive); with SR, 0.914 µM (active); in the test with SF-268, 0.543 µM (active); in the test with A498 it was 1.61 µM (inactive); in the test on ACHN it was 1.13 µM (inactive). Also, the GI50 in the test with SK-MEL-5 is 0.375 µM (active); in the test on KM12 it was 0.459 µM (active); in the test on NCI-H226, 1.31 µM (inactive); in the test on NCI-H23, 2.14 µM (inactive); in the test on SW-620, 0.555 µM (active); in the test with BT-549 it was 0.535 µM (active). The GI50 in the test with CCRF-CEM is 8.15 µM (inactive); in the test on SK-OV-3, 1.69 µM (inactive); with DU-145, 1.66 µM (inactive); with CAKI-1 it was 0.8 µM (active); with U-251, 0.454 µM (active); in the test on OVCAR-8, 0.527 µM (active). In addition, the GI50 with MDA-MB-435 was 0.186 µM (active).

Consider `C=C1CC/C=C(\C)C(=O)C[C@@H]2[C@@H]1CC2(C)C` [BUDDLEDIN C], for which the GI50 in the test with RXF 393 is 1.85 µM (inactive); in the test on HOP-92, 1.97 µM (inactive); in the test on SR, 0.0578 µM (active); in the test on SF-268, 14.1 µM (inactive); in the test with A498, 8.59 µM (inactive); in the test with ACHN, 2.18 µM (inactive). The GI50 in the test on SK-MEL-5 was 2.84 µM (inactive); in the test with KM12, 15 µM (inactive); in the test on NCI-H226 it was 14.8 µM (inactive); with NCI-H23, 5.2 µM (inactive); in the test with SW-620 it was 1.1 µM (active); in the test on BT-549 it was 2.45 µM (inactive). Also, the GI50 with CCRF-CEM was 0.0944 µM (active); in the test on SK-OV-3, 20.3 µM (inactive); in the test on DU-145 it was 3.16 µM (inactive); with CAKI-1, 1.38 µM (inactive); in the test with U-251, 6.79 µM (inactive); in the test on OVCAR-8, 4.7 µM (inactive). The GI50 with MDA-MB-435 was 1.43 µM (inactive).
